Assay results as given in ChEMBL document CHEMBL1149005, “Studies on zoapatle, II. Leucanthanolide, a novel sesquiterpene lactone from Montanoa leucantha ssp. leucantha” (1986).
≈ marks a conversion by molar mass, not a printed value. Calls of active or inactive are those of the source. No cut-off for these calls is given here.

Legend:
P388 = experiment: Cytotoxicity against mouse P388 cells; type: functional; details: read-out: ED50 (the source's name)
Cavia porcellus = experiment: Uteroevacuant activity in pregnant guinea pig at 20 mg/kg, ip administered on day 22 of gestation measured daily for 7 days; type: functional, organism-based; parameters: dose 20 mg/kg
KB = experiment: Cytotoxicity against human KB cells; type: functional; details: read-out: ED50 (the source's name)

Q: What does the source list for `C=C1C(=O)O[C@@H]2/C=C(\C)CC/C=C(\C)[C@@H](OC(=O)C(C)C)[C@H](O)[C@@]12O` [LEUCANTHANOLIDE]?
A: EC50 (P388): 0.93 µg/mL (≈ 2.65 µM); Activity (Cavia porcellus): inactive; EC50 (KB): 0.57 µg/mL (≈ 1.63 µM)
